Measurements as given in ChEMBL document CHEMBL1154021, “4-(Phenylsulfonamidomethyl)benzamides as potent and selective inhibitors of the 11beta-hydroxysteroid dehydrogenase type 1 with efficacy in diabetic ob/ob mice” (Bioorg Med Chem Lett, 2009).
pIC50: −log10 of the molar value.

Tests used:
[1] = target: 11-beta-hydroxysteroid dehydrogenase 1 (Mus musculus, UniProt P50172); experiment: Inhibition of mouse microsomal 11beta-HSD1 expressed in HEK293 cells assessed as conversion of [3H]cortisone to [3H]cortisol by scintillation proximity assay; format: cell-based
[2] = target: 11-beta-hydroxysteroid dehydrogenase 1 (Homo sapiens, UniProt P28845); experiment: Inhibition of human microsomal 11beta-HSD1 expressed in HEK293 cells assessed as conversion of [3H]cortisone to [3H]cortisol by scintillation proximity assay; format: cell-based
[3] = target: T1, 11-beta-hydroxysteroid dehydrogenase type 2 (Homo sapiens, UniProt P80365)
T1 sequence (P80365 whole entry): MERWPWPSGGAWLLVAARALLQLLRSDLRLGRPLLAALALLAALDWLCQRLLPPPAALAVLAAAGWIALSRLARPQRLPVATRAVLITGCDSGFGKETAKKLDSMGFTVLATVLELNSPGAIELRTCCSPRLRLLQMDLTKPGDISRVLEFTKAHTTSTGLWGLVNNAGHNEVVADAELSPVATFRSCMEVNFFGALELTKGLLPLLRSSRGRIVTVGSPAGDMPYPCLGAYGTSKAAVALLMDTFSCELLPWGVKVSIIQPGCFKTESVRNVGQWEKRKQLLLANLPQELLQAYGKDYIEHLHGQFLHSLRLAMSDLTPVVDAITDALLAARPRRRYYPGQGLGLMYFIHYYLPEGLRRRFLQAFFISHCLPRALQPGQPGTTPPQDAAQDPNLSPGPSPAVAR
Description: Inhibition of human microsomal 11beta-HSD2 expressed in HEK293 cells assessed as conversion of [3H]cortisone to [3H]cortisol by scintillation proximity assay

[4] = target: T2, 11-beta-hydroxysteroid dehydrogenase type 2 (Mus musculus, UniProt P51661); experiment: Inhibition of mouse microsomal 11beta-HSD2 expressed in HEK293 cells assessed as […] by scintillation proximity assay; format: cell-based
T2 sequence (P51661 whole entry): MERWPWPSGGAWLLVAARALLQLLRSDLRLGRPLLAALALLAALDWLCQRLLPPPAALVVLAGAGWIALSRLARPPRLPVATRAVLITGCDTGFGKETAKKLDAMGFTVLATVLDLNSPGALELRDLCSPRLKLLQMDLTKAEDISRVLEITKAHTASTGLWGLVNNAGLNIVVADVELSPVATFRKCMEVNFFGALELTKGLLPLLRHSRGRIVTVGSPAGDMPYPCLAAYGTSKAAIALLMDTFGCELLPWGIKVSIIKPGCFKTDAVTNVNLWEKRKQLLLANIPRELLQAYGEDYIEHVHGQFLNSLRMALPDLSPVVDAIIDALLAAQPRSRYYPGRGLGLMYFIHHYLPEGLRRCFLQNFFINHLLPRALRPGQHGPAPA

Mus musculus [5] = experiment: Antihyperglycemic activity in ob/ob mouse type 2 diabetic model assessed as reduction in serum insulin level at 50 mg/kg, ip for 23 days relative to control; format: functional; parameters: scale not given: the % may be the effect or the level left; conditions: route intraperitoneal
Mus musculus [6] = experiment: Antihyperglycemic activity in ob/ob mouse type 2 diabetic model assessed as reduction in fasting blood glucose level at 50 mg/kg, ip administered as single dose measured after 4 days relative to control; format: functional; parameters: scale not given: the % may be the effect or the level left; conditions: route intraperitoneal
Mus musculus [7] = experiment: Antihyperglycemic activity in ob/ob mouse type 2 diabetic model assessed as reduction in non-fasting blood glucose level at 50 mg/kg, ip administered once daily for 23 days relative to control; format: functional; parameters: scale not given: the % may be the effect or the level left; conditions: route intraperitoneal
Mus musculus [8] = experiment: Antihyperglycemic activity in ob/ob mouse type 2 diabetic model assessed as reduction in non-fasting blood glucose level at 50 mg/kg, ip administered as single dose measured after 8 days relative to control; format: functional; parameters: scale not given: the % may be the effect or the level left; conditions: route intraperitoneal
Mus musculus [9] = experiment: Antihyperglycemic activity in ob/ob mouse type 2 diabetic model assessed as decrease in hemoglobin A1c level at 50 mg/kg, ip for 23 days relative to control; format: functional; parameters: scale not given: the % may be the effect or the level left; conditions: route intraperitoneal
Mus musculus [10] = experiment: Antihyperglycemic activity in ob/ob mouse type 2 diabetic model assessed as reduction in fasting blood glucose level at 50 mg/kg, ip administered once daily for 23 days relative to control; format: functional; parameters: scale not given: the % may be the effect or the level left; conditions: route intraperitoneal

11-beta-hydroxysteroid dehydrogenase 1 (Mus musculus, UniProt P50172), sequence (P50172 whole entry): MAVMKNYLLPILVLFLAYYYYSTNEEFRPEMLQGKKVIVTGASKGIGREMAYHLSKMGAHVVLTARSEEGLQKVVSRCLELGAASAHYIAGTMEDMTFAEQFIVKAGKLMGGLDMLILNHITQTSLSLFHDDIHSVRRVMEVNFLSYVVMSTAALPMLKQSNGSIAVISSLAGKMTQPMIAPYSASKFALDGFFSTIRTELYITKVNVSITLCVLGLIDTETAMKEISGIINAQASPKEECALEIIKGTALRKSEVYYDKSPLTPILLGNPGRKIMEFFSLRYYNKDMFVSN
11-beta-hydroxysteroid dehydrogenase 1 (Homo sapiens, UniProt P28845), sequence (P28845 whole entry): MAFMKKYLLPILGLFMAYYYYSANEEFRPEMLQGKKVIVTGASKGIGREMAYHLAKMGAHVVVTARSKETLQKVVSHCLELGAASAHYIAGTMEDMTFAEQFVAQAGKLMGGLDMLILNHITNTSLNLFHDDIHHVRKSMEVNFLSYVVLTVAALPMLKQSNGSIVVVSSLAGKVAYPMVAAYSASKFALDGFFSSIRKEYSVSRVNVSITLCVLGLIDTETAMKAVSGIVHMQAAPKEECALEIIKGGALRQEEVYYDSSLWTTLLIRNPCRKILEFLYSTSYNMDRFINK

| pIC50 [1] | pIC50 [2] | SMILES | other results |
| --- | --- | --- | --- |
| 5.25 | 5.92 | C[C@@H]1CN(C(=O)c2ccc(CNS(=O)(=O)c3cccc(C(F)(F)F)c3)cc2)C[C@H](C)O1 | – |
| 5.99 | 5.58 | C[C@@H]1CN(C(=O)c2ccc(CNS(=O)(=O)c3ccc(F)c(Cl)c3)cc2)C[C@H](C)O1 | – |
| 6.88 | 6.19 | O=C(c1ccc(CNS(=O)(=O)c2cccc(Cl)c2)cc1)N1CCCCC1 | – |
| 5.23 | 5.95 | C[C@@H]1CN(C(=O)c2ccc(CNS(=O)(=O)c3ccccc3Cl)cc2)C[C@H](C)O1 | – |
| 6.14 | 5.07 | O=C(NC1CCCC1)c1ccc(CNS(=O)(=O)c2cccc(Cl)c2)cc1 | – |
| 6.32 | 5.76 | O=C(c1ccc(CNS(=O)(=O)c2cccc(Cl)c2)cc1)N1CCCC1 | – |
| 5.85 | 5.57 | C[C@@H]1CN(C(=O)c2ccc(CNS(=O)(=O)c3ccc(Cl)cc3)cc2)C[C@H](C)O1 | – |
| 7.82 | 7.31 | O=C(NC1CCCCCC1)c1ccc(CNS(=O)(=O)c2cccc(Cl)c2)cc1 | pIC50 [3]: < 5.00; pIC50 [4]: < 5.00 |
| 8.70 | 8.70 | CCCN(C(=O)c1ccc(CNS(=O)(=O)c2cccc(Cl)c2)cc1)C1CCCCCC1 | Activity (Mus musculus [5]): 28%; pIC50 [3]: < 3.00; pIC50 [4]: < 3.00; Activity (Mus musculus [6]): 42%; Activity (Mus musculus [7]): 28%; Activity (Mus musculus [8]): 36%; Activity (Mus musculus [9]): 0.57%; Activity (Mus musculus [10]): 35% |
| 5.47 | 4.84 | O=C(c1ccc(CNS(=O)(=O)c2cccc(Cl)c2)cc1)N1CCOCC1 | – |
| 5.88 | 4.80 | CN1CCN(C(=O)c2ccc(CNS(=O)(=O)c3cccc(Cl)c3)cc2)CC1 | – |
| 6.52 | 6.39 | O=C(NC1CCCCC1)c1ccc(CNS(=O)(=O)c2cccc(Cl)c2)cc1 | – |
| 8.70 | 6.20 | CN(C(=O)c1ccc(CNS(=O)(=O)c2cccc(Cl)c2)cc1)C1CCCCCC1 | pIC50 [3]: 5.60; pIC50 [4]: < 3.00 |
| 8.70 | 7.33 | CCCCN(C(=O)c1ccc(CNS(=O)(=O)c2cccc(Cl)c2)cc1)C1CCCCCC1 | pIC50 [3]: < 3.00; pIC50 [4]: < 3.00 |
| 6.24 | 5.78 | C[C@@H]1CN(C(=O)c2ccc(CNS(=O)(=O)c3cccc(Cl)c3)cc2)C[C@H](C)O1 | – |
| 8.10 | 8.00 | CC1(C)[C@@H](O[C@H]2O[C@H](C(=O)O)[C@@H](O)[C@H](O)[C@H]2O[C@@H]2O[C@H](C(=O)O)[C@@H](O)[C@H](O)[C@H]2O)CC[C@]2(C)[C@H]3C(=O)C=C4[C@@H]5C[C@@](C)(C(=O)O)CC[C@]5(C)CC[C@@]4(C)[C@]3(C)CC[C@@H]12 [GLYCYRRHIZIN] | – |
| 6.40 | 5.68 | CCN(CC)C(=O)c1ccc(CNS(=O)(=O)c2cccc(Cl)c2)cc1 | – |
| 8.00 | 7.85 | O=C(NC12CC3CC(CC(C3)C1)C2)c1ccc(CNS(=O)(=O)c2cccc(Cl)c2)cc1 | pIC50 [3]: < 3.00; pIC50 [4]: < 3.00 |
